Reference: ChEMBL document CHEMBL5653615 (J Biol Chem, 2013)

Key:
[1] = target: T1, Activin receptor type-1B (Homo sapiens) (UniProt P36896); test: Inhibition of human ALK4 at 500 nM by HotSpot assay relative to control
T1 sequence (whole entry): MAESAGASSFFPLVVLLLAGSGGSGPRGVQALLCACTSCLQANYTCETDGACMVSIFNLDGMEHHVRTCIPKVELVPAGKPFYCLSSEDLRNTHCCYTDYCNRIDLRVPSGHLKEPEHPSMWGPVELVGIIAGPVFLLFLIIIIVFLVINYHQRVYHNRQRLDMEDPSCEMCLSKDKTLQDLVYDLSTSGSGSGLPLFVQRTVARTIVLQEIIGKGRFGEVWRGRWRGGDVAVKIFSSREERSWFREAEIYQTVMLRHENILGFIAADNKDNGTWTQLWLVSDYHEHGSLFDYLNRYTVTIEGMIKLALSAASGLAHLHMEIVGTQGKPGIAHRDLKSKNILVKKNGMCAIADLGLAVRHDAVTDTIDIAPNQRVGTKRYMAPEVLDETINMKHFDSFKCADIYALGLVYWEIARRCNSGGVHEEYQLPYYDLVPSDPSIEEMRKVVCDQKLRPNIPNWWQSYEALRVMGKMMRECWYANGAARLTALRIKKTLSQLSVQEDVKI

[2] = target: Tyrosine-protein kinase BTK (Homo sapiens) (UniProt Q06187); test: Inhibition of human BTK at 500 nM by HotSpot assay relative to control
[3] = organism: Homo sapiens; test: Inhibition of human CDK2/cyclin A at 500 nM by HotSpot assay relative to control
[4] = target: Casein kinase I isoform gamma-2 (Homo sapiens) (UniProt P78368); test: Inhibition of human CK1g2 at 500 nM by HotSpot assay relative to control
[5] = target: Dual specificity protein kinase CLK1 (Homo sapiens) (UniProt P49759); test: Inhibition of human CLK1 at 500 nM by HotSpot assay relative to control
Dual specificity protein kinase CLK1 (Homo sapiens), sequence (P49759 whole entry, looked up, the tested form may be a part): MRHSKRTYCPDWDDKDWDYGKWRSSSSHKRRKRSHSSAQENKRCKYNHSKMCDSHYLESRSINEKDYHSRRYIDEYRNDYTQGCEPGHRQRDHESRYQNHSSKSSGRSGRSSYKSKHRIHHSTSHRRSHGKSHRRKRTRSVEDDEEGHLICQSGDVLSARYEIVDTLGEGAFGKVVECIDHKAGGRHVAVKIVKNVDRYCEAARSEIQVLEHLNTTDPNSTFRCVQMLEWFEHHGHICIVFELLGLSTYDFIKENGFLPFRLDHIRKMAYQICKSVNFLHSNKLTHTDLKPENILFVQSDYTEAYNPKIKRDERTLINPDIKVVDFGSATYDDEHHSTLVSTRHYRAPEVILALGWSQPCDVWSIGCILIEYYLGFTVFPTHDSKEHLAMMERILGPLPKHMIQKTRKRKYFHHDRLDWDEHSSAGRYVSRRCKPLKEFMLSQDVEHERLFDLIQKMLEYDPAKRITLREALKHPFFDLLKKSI

[6] = target: T2, Discoidin domain-containing receptor 2 (Homo sapiens) (UniProt Q16832); test: Inhibition of human DDR2 at 500 nM by HotSpot assay relative to control
T2 sequence (whole entry): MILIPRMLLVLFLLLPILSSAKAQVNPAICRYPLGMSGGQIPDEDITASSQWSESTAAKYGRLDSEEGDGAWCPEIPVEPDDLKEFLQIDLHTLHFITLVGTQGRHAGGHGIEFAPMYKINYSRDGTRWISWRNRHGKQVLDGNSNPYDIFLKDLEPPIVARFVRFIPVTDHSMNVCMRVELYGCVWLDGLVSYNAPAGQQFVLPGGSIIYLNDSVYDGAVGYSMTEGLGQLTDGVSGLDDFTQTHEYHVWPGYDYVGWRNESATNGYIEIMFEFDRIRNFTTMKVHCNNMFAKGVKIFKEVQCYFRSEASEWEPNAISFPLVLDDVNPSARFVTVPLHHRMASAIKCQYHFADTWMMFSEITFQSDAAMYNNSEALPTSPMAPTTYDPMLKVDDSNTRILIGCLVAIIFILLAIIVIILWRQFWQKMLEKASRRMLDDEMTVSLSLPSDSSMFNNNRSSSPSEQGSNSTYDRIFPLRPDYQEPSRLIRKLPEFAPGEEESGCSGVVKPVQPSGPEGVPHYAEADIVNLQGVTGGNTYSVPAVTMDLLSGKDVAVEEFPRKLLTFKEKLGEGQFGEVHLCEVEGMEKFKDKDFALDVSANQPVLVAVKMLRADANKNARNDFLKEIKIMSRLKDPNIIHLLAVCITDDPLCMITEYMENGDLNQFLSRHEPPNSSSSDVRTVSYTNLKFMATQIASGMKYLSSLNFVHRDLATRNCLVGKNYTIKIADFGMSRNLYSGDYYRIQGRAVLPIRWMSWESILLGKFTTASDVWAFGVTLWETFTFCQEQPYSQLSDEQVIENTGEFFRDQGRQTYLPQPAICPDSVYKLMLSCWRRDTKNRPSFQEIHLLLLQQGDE

[7] = target: T3, Dual specificity tyrosine-phosphorylation-regulated kinase 3 (Homo sapiens) (UniProt O43781); test: Inhibition of human DYRK3 at 500 nM by HotSpot assay relative to control
T3 sequence (whole entry): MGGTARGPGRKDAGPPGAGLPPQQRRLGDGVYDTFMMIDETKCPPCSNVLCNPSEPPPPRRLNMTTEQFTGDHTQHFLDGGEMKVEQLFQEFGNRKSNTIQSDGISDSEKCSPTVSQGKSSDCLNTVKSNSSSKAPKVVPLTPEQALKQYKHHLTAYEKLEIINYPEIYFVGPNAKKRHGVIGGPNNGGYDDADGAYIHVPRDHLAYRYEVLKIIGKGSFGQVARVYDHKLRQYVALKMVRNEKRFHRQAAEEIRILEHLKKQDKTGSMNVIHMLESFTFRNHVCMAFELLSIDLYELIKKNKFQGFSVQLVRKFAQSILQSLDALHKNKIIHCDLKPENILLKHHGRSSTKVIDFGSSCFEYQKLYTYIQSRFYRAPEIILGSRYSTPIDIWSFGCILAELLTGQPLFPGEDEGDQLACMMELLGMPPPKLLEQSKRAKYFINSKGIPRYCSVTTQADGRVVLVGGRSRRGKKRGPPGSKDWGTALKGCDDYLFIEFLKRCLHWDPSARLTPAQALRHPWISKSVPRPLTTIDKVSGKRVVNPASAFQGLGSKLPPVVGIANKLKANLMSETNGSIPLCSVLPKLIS

[8] = target: Ephrin type-A receptor 2 (Homo sapiens) (UniProt P29317); test: Inhibition of human EPHA2 at 500 nM by HotSpot assay relative to control
[9] = target: Receptor tyrosine-protein kinase erbB-4 (Homo sapiens) (UniProt Q15303); test: Inhibition of human ERBB4 at 500 nM by HotSpot assay relative to control
Receptor tyrosine-protein kinase erbB-4 (Homo sapiens), sequence (Q15303 whole entry): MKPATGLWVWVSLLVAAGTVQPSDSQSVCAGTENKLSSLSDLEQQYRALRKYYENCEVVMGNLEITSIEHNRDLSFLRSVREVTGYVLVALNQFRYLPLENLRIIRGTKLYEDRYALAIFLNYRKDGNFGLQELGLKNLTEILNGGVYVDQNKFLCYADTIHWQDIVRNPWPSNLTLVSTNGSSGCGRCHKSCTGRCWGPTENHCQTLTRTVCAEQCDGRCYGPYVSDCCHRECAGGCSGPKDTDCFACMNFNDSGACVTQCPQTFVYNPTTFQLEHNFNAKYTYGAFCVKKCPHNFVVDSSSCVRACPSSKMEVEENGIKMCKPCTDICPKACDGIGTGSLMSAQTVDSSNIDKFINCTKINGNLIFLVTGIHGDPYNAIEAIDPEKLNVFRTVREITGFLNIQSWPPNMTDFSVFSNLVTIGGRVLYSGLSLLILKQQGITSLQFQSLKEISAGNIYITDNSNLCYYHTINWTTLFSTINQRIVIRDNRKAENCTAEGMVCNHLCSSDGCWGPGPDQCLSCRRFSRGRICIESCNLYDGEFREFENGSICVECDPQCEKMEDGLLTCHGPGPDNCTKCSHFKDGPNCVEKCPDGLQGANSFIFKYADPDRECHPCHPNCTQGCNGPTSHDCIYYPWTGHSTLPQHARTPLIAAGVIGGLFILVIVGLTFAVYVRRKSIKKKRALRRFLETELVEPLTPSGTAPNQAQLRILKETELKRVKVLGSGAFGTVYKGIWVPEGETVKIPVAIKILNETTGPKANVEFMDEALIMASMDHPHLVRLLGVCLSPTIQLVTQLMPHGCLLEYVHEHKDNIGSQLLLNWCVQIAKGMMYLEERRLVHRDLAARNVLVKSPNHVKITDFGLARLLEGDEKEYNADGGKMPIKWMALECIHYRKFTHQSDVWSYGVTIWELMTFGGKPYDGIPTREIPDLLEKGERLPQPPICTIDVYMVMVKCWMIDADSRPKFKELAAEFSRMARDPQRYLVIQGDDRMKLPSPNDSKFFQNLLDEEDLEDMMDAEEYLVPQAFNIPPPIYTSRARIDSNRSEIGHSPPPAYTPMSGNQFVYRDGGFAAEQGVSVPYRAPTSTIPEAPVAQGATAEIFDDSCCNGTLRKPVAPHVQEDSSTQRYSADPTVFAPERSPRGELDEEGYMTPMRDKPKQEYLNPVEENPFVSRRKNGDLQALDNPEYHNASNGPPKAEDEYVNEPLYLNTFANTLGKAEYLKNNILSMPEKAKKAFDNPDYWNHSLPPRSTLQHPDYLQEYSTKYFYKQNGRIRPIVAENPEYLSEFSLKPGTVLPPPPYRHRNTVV

[10] = target: Tyrosine-protein kinase JAK2 (Homo sapiens) (UniProt O60674); test: Inhibition of human JAK2 at 500 nM by HotSpot assay relative to control
[11] = target: cAMP-dependent protein kinase (PKA) (Homo sapiens) (UniProt P22694+P17612+P22612); test: Inhibition of human PKA at 500 nM by HotSpot assay relative to control; type: protein assay
[12] = target: Proto-oncogene tyrosine-protein kinase ROS (Homo sapiens) (UniProt P08922); test: Inhibition of human ROS1 at 500 nM by HotSpot assay relative to control
Proto-oncogene tyrosine-protein kinase ROS (Homo sapiens), sequence (P08922 whole entry): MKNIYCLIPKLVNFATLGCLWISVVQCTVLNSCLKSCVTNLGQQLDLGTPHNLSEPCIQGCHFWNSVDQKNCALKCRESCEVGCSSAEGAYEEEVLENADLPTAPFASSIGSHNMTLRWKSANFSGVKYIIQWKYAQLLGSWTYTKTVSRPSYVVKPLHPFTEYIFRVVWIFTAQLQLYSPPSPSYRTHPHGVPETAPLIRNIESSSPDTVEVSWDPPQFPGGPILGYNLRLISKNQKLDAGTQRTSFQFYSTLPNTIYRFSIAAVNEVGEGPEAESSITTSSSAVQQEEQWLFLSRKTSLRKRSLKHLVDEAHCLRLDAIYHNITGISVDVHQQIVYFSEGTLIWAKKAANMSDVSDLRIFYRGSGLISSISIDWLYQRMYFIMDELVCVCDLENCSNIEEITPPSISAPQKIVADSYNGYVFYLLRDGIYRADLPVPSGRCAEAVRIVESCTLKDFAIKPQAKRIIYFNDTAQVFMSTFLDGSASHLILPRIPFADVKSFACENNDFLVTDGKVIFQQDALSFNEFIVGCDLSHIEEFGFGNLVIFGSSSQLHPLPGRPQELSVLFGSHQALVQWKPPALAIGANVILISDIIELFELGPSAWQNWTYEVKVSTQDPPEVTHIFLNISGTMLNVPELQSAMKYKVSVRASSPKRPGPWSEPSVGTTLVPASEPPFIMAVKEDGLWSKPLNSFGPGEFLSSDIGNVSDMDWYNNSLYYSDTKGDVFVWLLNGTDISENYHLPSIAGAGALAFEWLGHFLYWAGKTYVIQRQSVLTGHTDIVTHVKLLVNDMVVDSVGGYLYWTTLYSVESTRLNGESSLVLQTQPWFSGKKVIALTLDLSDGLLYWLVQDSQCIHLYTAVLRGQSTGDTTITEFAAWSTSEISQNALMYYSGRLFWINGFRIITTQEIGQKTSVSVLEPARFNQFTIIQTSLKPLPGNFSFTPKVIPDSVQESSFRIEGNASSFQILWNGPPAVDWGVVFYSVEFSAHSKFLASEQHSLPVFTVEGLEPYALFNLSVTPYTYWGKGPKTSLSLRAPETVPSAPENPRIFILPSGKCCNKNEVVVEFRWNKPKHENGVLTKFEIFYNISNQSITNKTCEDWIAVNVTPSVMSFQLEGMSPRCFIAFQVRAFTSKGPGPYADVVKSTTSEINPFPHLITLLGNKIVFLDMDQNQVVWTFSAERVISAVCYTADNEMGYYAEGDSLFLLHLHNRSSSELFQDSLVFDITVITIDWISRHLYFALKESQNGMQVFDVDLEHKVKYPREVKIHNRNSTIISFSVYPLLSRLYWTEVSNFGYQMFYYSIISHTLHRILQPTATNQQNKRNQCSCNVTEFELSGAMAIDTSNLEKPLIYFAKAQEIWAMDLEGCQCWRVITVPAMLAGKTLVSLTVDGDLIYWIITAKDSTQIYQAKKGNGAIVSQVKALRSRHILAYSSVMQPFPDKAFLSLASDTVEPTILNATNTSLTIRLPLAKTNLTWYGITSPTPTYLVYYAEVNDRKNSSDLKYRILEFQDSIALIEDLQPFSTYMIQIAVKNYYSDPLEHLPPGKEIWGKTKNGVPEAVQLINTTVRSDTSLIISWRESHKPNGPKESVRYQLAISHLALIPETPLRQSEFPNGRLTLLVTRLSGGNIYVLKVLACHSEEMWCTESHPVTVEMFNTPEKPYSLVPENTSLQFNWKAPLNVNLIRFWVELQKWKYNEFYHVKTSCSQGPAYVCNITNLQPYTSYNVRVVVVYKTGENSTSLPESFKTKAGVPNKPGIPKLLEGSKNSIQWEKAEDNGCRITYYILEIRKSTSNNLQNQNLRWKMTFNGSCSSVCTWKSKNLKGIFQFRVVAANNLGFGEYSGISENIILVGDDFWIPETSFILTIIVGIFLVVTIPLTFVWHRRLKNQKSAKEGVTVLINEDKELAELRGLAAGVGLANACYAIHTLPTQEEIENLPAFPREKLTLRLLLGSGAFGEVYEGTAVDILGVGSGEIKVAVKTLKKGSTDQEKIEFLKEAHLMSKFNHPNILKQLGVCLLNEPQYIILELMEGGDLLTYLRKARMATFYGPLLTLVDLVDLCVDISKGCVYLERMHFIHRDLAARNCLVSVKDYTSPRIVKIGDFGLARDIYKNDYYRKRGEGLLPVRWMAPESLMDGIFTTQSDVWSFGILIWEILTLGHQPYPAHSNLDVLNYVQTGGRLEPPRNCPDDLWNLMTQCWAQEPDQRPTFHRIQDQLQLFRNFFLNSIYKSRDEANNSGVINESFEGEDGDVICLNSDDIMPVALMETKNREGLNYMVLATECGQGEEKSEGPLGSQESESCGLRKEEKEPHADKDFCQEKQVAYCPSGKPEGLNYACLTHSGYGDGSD

[13] = target: Ribosomal protein S6 kinase alpha-6 (Homo sapiens) (UniProt Q9UK32); test: Inhibition of human RSK4 at 500 nM by HotSpot assay relative to control
[14] = target: Serine/threonine-protein kinase 25 (Homo sapiens) (UniProt O00506); test: Inhibition of human YSK1 at 500 nM by HotSpot assay relative to control
Serine/threonine-protein kinase 25 (Homo sapiens), sequence (O00506 whole entry, looked up): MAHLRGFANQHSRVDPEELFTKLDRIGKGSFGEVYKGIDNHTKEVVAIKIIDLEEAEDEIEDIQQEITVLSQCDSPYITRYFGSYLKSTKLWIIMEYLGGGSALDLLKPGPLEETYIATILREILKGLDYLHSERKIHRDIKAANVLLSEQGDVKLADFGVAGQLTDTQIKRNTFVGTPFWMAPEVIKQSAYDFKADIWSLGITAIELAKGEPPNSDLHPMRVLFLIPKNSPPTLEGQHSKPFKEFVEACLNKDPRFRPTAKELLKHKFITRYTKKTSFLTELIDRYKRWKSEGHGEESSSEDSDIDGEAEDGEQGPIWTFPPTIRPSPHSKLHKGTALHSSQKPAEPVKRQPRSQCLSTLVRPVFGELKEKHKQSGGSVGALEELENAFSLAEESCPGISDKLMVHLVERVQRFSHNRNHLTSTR

[15] = target: Serine/threonine-protein kinase 33 (Homo sapiens) (UniProt Q9BYT3); test: Inhibition of human STK33 at 500 nM by HotSpot assay relative to control
Serine/threonine-protein kinase 33 (Homo sapiens), sequence (Q9BYT3 whole entry, looked up): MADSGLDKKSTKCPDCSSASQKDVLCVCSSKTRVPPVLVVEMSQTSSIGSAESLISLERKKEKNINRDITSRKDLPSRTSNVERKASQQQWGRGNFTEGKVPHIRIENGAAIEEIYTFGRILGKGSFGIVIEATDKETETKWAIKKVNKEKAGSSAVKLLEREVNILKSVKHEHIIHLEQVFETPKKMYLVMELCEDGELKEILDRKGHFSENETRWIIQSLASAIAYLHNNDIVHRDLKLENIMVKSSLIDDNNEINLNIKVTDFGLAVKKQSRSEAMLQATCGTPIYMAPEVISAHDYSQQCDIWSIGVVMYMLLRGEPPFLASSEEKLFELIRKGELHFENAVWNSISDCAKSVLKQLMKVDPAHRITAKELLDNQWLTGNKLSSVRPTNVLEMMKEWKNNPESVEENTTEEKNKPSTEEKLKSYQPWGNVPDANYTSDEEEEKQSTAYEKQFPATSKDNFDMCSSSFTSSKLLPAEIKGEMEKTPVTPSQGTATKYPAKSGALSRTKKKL

[16] = target: High affinity nerve growth factor receptor (Homo sapiens) (UniProt P04629); test: Inhibition of human TRKA at 500 nM by HotSpot assay relative to control

| Compound | inhibition [1] | inhibition [2] | inhibition [3] | inhibition [4] | inhibition [5] | inhibition [6] | inhibition [7] | inhibition [8] | inhibition [9] | inhibition [10] | inhibition [11] | inhibition [12] | inhibition [13] | inhibition [14] | inhibition [15] | inhibition [16] |
| --- | --- | --- | --- | --- | --- | --- | --- | --- | --- | --- | --- | --- | --- | --- | --- | --- |
| Oc1n[nH]c2nnc(-c3c(-c4ccccc4)nn4ccccc34)cc12 | 0.15% | 9.23% | -0.72% | 3.49% | -5.95% | -2.78% | 1.62% | -0.91% | -0.52% | 2.36% | -5.26% | 2.73% | -2.71% | 4.81% | -0.22% | 4.28% |
| Nc1n[nH]c2nnc(-c3c(-c4ccccc4)nn4ccccc34)cc12 | -6.71% | 6.42% | 7.12% | -9.31% | -8.27% | -0.55% | 0.17% | 1.69% | 8.64% | 2.93% | 2.35% | 19.8% | 4.48% | 15.8% | -0.39% | -1.03% |
